Measured values published in PubChem BioAssay AID256 (DTP/NCI, 2004).
Values joined by “and” are separate entries in the source; they are usually repeats but may differ in a detail not shown here. Identical values can stand only once. Inconclusive results and toxic doses are left out.

System: CD2F1 mice, L1210 leukemia ip, survival T/C
Assay: NCI In Vivo Anticancer Drug Screen. Data for tumor model L1210 Leukemia (intraperitoneal) in CD2F1 (CDF1) mice
Conditions: higher = longer survival
Outline: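 Vehicle-treated tumor-bearing mice served as controls (C) for compound-treated mice (T). Reported figure is T divided by C.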

[1] = endpoint: mean survival time, dose: 100.0 mg/kg/injection, schedule: Q01DX001 (ip), vehicle: saline with Tween-80
[2] = endpoint: mean survival time, dose: 100.0 mg/kg/injection, schedule: Q01DX009 (ip), vehicle: saline with Tween-80
[3] = endpoint: mean survival time, dose: 100.0 mg/kg/injection, schedule: Q04DX002 (ip), vehicle: saline with Tween-80
[4] = endpoint: mean survival time, dose: 100.0 mg/kg/injection, schedule: Q04DX003 (ip), vehicle: saline with Tween-80
[5] = endpoint: mean survival time, dose: 200.0 mg/kg/injection, schedule: Q01DX001 (ip), vehicle: saline with Tween-80
[6] = endpoint: mean survival time, dose: 200.0 mg/kg/injection, schedule: Q01DX009 (ip), vehicle: saline with Tween-80
[7] = endpoint: mean survival time, dose: 200.0 mg/kg/injection, schedule: Q04DX002 (ip), vehicle: saline with Tween-80
[8] = endpoint: mean survival time, dose: 200.0 mg/kg/injection, schedule: Q04DX003 (ip), vehicle: saline with Tween-80
[9] = endpoint: mean survival time, dose: 400.0 mg/kg/injection, schedule: Q01DX009 (ip), vehicle: saline with Tween-80
[10] = endpoint: mean survival time, dose: 400.0 mg/kg/injection, schedule: Q04DX002 (ip), vehicle: saline with Tween-80
[11] = endpoint: mean survival time, dose: 400.0 mg/kg/injection, schedule: Q04DX003 (ip), vehicle: saline with Tween-80

Compound: C[n+]1ccc2ccccc2c1SC1CCC2CC3CC2C1C3 (configuration not stated)
- T/C (endpoint: mean survival time, dose: 10.0 mg/kg/injection, schedule: Q01DX009 (iv), vehicle: methylcellulose (MC)): 97 % of control
- T/C (endpoint: mean survival time, dose: 20.0 mg/kg/injection, schedule: Q01DX009 (iv), vehicle: methylcellulose (MC)): 97 % of control

Compound: CCCCCCCCCC(=O)NC(=S)Nc1cccc(C(C)=O)c1
- T/C [1]: 89 % of control
- T/C [2]: 87 % of control and 95 % of control
- T/C [3]: 88 % of control and 104 % of control
- T/C [4]: 93 % of control
- T/C [5]: 88 % of control
- T/C [6]: 91 % of control and 109 % of control
- T/C [7]: 92 % of control and 96 % of control
- T/C [8]: 91 % of control
- T/C [9]: 95 % of control
- T/C [10]: 88 % of control and 90 % of control
- T/C [11]: 95 % of control

Compound: CC1=NC2=Nc3cc[n+](C4OC(CO)C(O)C4O)c(=O)n3CC2=CN1C (configuration not stated)
- T/C (endpoint: median survival time, dose: 12.5 mg/kg/injection, schedule: Q01DX005 (ip), vehicle: water): 107 % of control
- T/C (endpoint: median survival time, dose: 25.0 mg/kg/injection, schedule: Q01DX005 (ip), vehicle: water): 105 % of control
- T/C (endpoint: median survival time, dose: 50.0 mg/kg/injection, schedule: Q01DX005 (ip), vehicle: water): 105 % of control
- T/C (endpoint: median survival time, dose: 100.0 mg/kg/injection, schedule: Q01DX005 (ip), vehicle: water): 105 % of control and 107 % of control
- T/C (endpoint: median survival time, dose: 200.0 mg/kg/injection, schedule: Q01DX005 (ip), vehicle: water): 103 % of control and 105 % of control
- T/C (endpoint: median survival time, dose: 400.0 mg/kg/injection, schedule: Q01DX005 (ip), vehicle: water): 104 % of control

Compound: C#CCOCCC(C(=O)OCC)C(=O)OCC
- T/C (endpoint: mean survival time, dose: 100.0 mg/kg/injection, schedule: Q04DX003 (ip), vehicle: acetone): 108 % of control
- T/C (endpoint: mean survival time, dose: 200.0 mg/kg/injection, schedule: Q04DX003 (ip), vehicle: acetone): 103 % of control
- T/C (endpoint: mean survival time, dose: 400.0 mg/kg/injection, schedule: Q04DX003 (ip), vehicle: acetone): 110 % of control

Compound: COc1ccc(C(C)O)cc1 (configuration not stated)
- T/C [3]: 104 % of control
- T/C [7]: 93 % of control
- T/C [10]: 97 % of control

Compound: O=C1OC(CBr)CC1(c1ccccc1)c1ccccc1 (configuration not stated)
- T/C [1]: 95 % of control
- T/C [2]: 102 % of control
- T/C [5]: 100 % of control
- T/C [6]: 100 % of control
- T/C (endpoint: mean survival time, dose: 400.0 mg/kg/injection, schedule: Q01DX001 (ip), vehicle: saline with Tween-80): 100 % of control
- T/C [9]: 102 % of control

Compound: COC(=O)Nc1cccc(-c2nc3ccc(NC(=O)OC)cc3c(=O)n2-c2ccccc2)c1
- T/C (endpoint: mean survival time, dose: 50.0 mg/kg/injection, schedule: Q01DX009 (ip), vehicle: Klucel (hydroxypropylcellulose) (HPC)): 114 % of control
- T/C (endpoint: mean survival time, dose: 100.0 mg/kg/injection, schedule: Q01DX009 (ip), vehicle: Klucel (hydroxypropylcellulose) (HPC)): 91 % of control
- T/C (endpoint: median survival time, dose: 50.0 mg/kg/injection, schedule: Q04DX003 (ip), vehicle: saline with Tween-80): 101 % of control
- T/C (endpoint: median survival time, dose: 100.0 mg/kg/injection, schedule: Q04DX003 (ip), vehicle: saline with Tween-80): 103 % of control
- T/C (endpoint: median survival time, dose: 200.0 mg/kg/injection, schedule: Q04DX003 (ip), vehicle: saline with Tween-80): 100 % of control

Compound: O=[P+](O)O[P+](=O)O.O=[P+](O)O[P+](=O)O.O=[P+](O)O[P+](=O)O.O=[P+](O)O[P+](=O)O.[Cl][Pt].[Cl][Pt]
- T/C (endpoint: median survival time, dose: 3.12 mg/kg/injection, schedule: Q04DX003 (ip), vehicle: saline): 102 % of control
- T/C (endpoint: median survival time, dose: 6.25 mg/kg/injection, schedule: Q04DX003 (ip), vehicle: saline): 96 % of control
- T/C (endpoint: median survival time, dose: 12.5 mg/kg/injection, schedule: Q04DX003 (ip), vehicle: saline): 95 % of control
- T/C (endpoint: median survival time, dose: 25.0 mg/kg/injection, schedule: Q04DX003 (ip), vehicle: saline): 97 % of control
- T/C (endpoint: median survival time, dose: 50.0 mg/kg/injection, schedule: Q04DX003 (ip), vehicle: saline): 104 % of control

Compound: O=[As](c1ccccc1Br)(c1ccccc1Br)c1ccccc1Br
- T/C (endpoint: mean survival time, dose: 50.0 mg/kg/injection, schedule: Q04DX003 (ip), vehicle: saline): 101 % of control
- T/C (endpoint: mean survival time, dose: 100.0 mg/kg/injection, schedule: Q04DX003 (ip), vehicle: saline): 100 % of control
- T/C (endpoint: mean survival time, dose: 200.0 mg/kg/injection, schedule: Q04DX003 (ip), vehicle: saline): 95 % of control

Compound: OC(CN1CCOCC1)CN1CCOCC1
- T/C (endpoint: mean survival time, dose: 100.0 mg/kg/injection, schedule: Q01DX001 (ip), vehicle: saline): 104 % of control
- T/C (endpoint: mean survival time, dose: 200.0 mg/kg/injection, schedule: Q01DX001 (ip), vehicle: saline): 104 % of control
- T/C (endpoint: mean survival time, dose: 400.0 mg/kg/injection, schedule: Q01DX001 (ip), vehicle: saline): 103 % of control

Compound: CS(=O)(=O)N1C(=O)c2ccccc2C1=O
- T/C (endpoint: mean survival time, dose: 25.0 mg/kg/injection, schedule: Q04DX002 (ip), vehicle: saline with Tween-80): 101 % of control
- T/C (endpoint: mean survival time, dose: 50.0 mg/kg/injection, schedule: Q04DX002 (ip), vehicle: saline with Tween-80): 98 % of control
- T/C [3]: 93 % of control

Compound: CC(C)/C=C\C=C\C(C)C
- T/C (endpoint: mean survival time, dose: 50.0 mg/kg/injection, schedule: Q01DX009 (ip), vehicle: saline with Tween-80): 96 % of control
- T/C [2]: 103 % of control
- T/C [6]: 96 % of control

Compound: COc1cc(N)c2nc(C(O)C(O)C(O)CO)cnc2c1 (configuration not stated)
- T/C (endpoint: median survival time, dose: 12.5 mg/kg/injection, schedule: Q01DX005 (ip), vehicle: distilled water + Tween-80): 98 % of control
- T/C (endpoint: median survival time, dose: 25.0 mg/kg/injection, schedule: Q01DX005 (ip), vehicle: distilled water + Tween-80): 90 % of control
- T/C (endpoint: median survival time, dose: 50.0 mg/kg/injection, schedule: Q01DX005 (ip), vehicle: distilled water + Tween-80): 89 % of control
- T/C (endpoint: median survival time, dose: 100.0 mg/kg/injection, schedule: Q01DX005 (ip), vehicle: distilled water + Tween-80): 92 % of control
- T/C (endpoint: median survival time, dose: 200.0 mg/kg/injection, schedule: Q01DX005 (ip), vehicle: distilled water + Tween-80): 95 % of control

Compound: CCC(C)[Se][Se]C(C)CC (configuration not stated)
- T/C (endpoint: mean survival time, dose: 25.0 mg/kg/injection, schedule: Q04DX003 (ip), vehicle: saline with Tween-80): 93 % of control

Compound: O=C(CCCl)Oc1ccc(Br)cc1
- T/C [2]: 94 % of control
- T/C [4]: 98 % of control
- T/C [6]: 96 % of control
- T/C [8]: 100 % of control
- T/C [9]: 102 % of control
- T/C [11]: 96 % of control

Compound: CO[C@@]12[C@@H]3N[C@@H]3CN1C1=C(C(=O)C(NCCc3ccccn3)=C(C)C1=O)[C@@H]2COC(N)=O
- T/C (endpoint: median survival time, dose: 3.12 mg/kg/injection, schedule: Q01DX001 (ip), vehicle: saline with Tween-80): 93 % of control
- T/C (endpoint: median survival time, dose: 3.13 mg/kg/injection, schedule: Q01DX005 (ip), vehicle: saline with Tween-80): 153 % of control
- T/C (endpoint: median survival time, dose: 6.25 mg/kg/injection, schedule: Q01DX001 (ip), vehicle: saline with Tween-80): 111 % of control
- T/C (endpoint: median survival time, dose: 6.25 mg/kg/injection, schedule: Q01DX005 (ip), vehicle: saline with Tween-80): 164 % of control
- T/C (endpoint: median survival time, dose: 12.5 mg/kg/injection, schedule: Q01DX001 (ip), vehicle: saline with Tween-80): 120 % of control
- T/C (endpoint: median survival time, dose: 12.5 mg/kg/injection, schedule: Q01DX005 (ip), vehicle: saline with Tween-80): 166 % of control
- T/C (endpoint: median survival time, dose: 18.0 mg/kg/injection, schedule: Q01DX001 (ip), vehicle: saline with Tween-80): 153 % of control
- T/C (endpoint: median survival time, dose: 25.0 mg/kg/injection, schedule: Q01DX005 (ip), vehicle: saline with Tween-80): 89 % of control
- T/C (endpoint: median survival time, dose: 30.0 mg/kg/injection, schedule: Q01DX001 (ip), vehicle: saline with Tween-80): 160 % of control
- T/C (endpoint: median survival time, dose: 50.0 mg/kg/injection, schedule: Q01DX001 (ip), vehicle: saline with Tween-80): 188 % of control and 200 % of control
- T/C (endpoint: median survival time, dose: 83.32 mg/kg/injection, schedule: Q01DX001 (ip), vehicle: saline with Tween-80): 156 % of control
- T/C (endpoint: median survival time, dose: 3.12 micrograms/kg/injection, schedule: Q01DX001 (ip), vehicle: saline with Tween-80): 97 % of control
- T/C (endpoint: median survival time, dose: 6.25 micrograms/kg/injection, schedule: Q01DX001 (ip), vehicle: saline with Tween-80): 102 % of control
- T/C (endpoint: median survival time, dose: 12.5 micrograms/kg/injection, schedule: Q01DX001 (ip), vehicle: saline with Tween-80): 108 % of control
- T/C (endpoint: median survival time, dose: 25.0 micrograms/kg/injection, schedule: Q01DX001 (ip), vehicle: saline with Tween-80): 97 % of control
- T/C (endpoint: median survival time, dose: 50.0 micrograms/kg/injection, schedule: Q01DX001 (ip), vehicle: saline with Tween-80): 97 % of control
- T/C (endpoint: median survival time, dose: 3125.0 micrograms/kg/injection, schedule: Q01DX001 (ip), vehicle: saline with Tween-80): 118 % of control
- T/C (endpoint: median survival time, dose: 25000.0 micrograms/kg/injection, schedule: Q01DX001 (ip), vehicle: saline with Tween-80): 153 % of control
- T/C (endpoint: median survival time, dose: 50000.0 micrograms/kg/injection, schedule: Q01DX001 (ip), vehicle: saline with Tween-80): 322 % of control

Compound: O=C1NC2CC3CC(C2)CC1C3
- T/C (endpoint: mean survival time, dose: 12.5 mg/kg/injection, schedule: Q04DX003 (ip), vehicle: alcohol): 100 % of control
- T/C (endpoint: mean survival time, dose: 25.0 mg/kg/injection, schedule: Q04DX003 (ip), vehicle: alcohol): 92 % of control
- T/C (endpoint: mean survival time, dose: 50.0 mg/kg/injection, schedule: Q04DX003 (ip), vehicle: alcohol): 97 % of control
